{
  "source": "paper PMC11413451",
  "about": "(Frontiers in Cell and Developmental Biology, 2024)",
  "key": {"[1]": {"target": "T1, human Slo3 (Homo sapiens, UniProt A8MYU2)", "T1 construct": "expressed in transfected cells; host or cells: CHO cells, transient co-transfection with pcDNA3.1(+) vectors", "T1 sequence (A8MYU2 1-1149)": "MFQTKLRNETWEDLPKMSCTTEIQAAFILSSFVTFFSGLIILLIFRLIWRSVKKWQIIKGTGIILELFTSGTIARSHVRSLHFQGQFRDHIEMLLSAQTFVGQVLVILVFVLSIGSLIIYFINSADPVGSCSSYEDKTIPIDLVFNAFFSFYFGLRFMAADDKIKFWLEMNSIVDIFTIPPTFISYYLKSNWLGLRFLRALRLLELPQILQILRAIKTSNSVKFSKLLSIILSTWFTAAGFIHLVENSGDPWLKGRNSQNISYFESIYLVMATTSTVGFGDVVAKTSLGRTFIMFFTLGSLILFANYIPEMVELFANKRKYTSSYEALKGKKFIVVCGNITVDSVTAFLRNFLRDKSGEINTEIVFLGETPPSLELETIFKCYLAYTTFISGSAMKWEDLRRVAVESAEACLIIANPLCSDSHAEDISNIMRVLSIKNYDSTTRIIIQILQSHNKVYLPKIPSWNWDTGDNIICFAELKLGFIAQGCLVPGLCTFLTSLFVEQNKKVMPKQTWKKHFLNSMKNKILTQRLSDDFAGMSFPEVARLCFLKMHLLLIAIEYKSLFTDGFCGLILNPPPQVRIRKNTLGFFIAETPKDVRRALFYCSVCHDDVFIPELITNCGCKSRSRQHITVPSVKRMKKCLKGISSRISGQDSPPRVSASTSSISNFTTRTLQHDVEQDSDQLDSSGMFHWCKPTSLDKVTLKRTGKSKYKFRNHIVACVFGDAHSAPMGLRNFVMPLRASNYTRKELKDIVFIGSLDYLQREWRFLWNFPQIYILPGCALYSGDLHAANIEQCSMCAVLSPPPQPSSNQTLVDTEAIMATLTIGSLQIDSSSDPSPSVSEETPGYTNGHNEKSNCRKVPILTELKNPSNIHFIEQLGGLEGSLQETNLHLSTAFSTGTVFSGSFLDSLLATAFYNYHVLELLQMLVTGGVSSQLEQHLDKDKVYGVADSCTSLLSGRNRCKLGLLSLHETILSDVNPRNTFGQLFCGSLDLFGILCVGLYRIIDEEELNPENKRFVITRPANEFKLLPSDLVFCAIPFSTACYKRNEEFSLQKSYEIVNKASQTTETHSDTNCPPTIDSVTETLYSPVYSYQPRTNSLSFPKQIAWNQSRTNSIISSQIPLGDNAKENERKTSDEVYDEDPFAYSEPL", "T1 sequence (Q8N7C0 24-313 partner)": "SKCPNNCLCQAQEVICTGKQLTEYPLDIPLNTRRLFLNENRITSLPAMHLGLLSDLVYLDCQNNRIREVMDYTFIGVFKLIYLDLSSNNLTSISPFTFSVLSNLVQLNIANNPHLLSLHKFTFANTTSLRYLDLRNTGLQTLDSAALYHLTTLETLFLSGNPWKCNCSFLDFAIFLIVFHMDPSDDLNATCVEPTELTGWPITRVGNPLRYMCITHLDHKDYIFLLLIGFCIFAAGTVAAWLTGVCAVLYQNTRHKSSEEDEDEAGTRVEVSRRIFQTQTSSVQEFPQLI", "experiment": "Whole-cell patch-clamp of Slo3 currents in CHO cells co-expressing human Slo3 and LRRC52", "type": "cell-based"}, "[2]": {"system": "CatSper", "settings": "relative to progesterone; cited from earlier work"}, "[3]": {"settings": "dose-response, Hill fit, mean ± SD, read-out: IC50 for inhibition of Slo3"}, "[4]": {"settings": "50 µM prostaglandin, n = 3, in range of current rundown"}},
  "note": "Like-named read-outs stand apart in the source and are kept apart here.",
  "data": [
    {"smiles": "CC(=O)[C@@]1(O)CC[C@H]2[C@@H]3CC=C4C[C@@H](O)CC[C@]4(C)[C@H]3CC[C@@]21C", "note": "[17α-hydroxypregnenolone]", "values": [
      {"measurement": "decrease of Slo3 current amplitude", "setting": "[1]; 50 μM steroid, +100 mV, n ≥ 3", "value": "≤ 18", "unit": "%"}
    ]},
    {"smiles": "CC(=O)C1(O)CCC2C3CCC4=CC(=O)CCC4(C)C3CCC21C", "note": "(stereo not drawn) [17α-hydroxyprogesterone]", "values": [
      {"measurement": "decrease of Slo3 current amplitude", "setting": "[1]; 50 μM steroid, +100 mV, n ≥ 3", "value": "significantly decreased"},
      {"measurement": "IC50", "setting": "[1]; [3]", "value": "27 ± 10", "unit": "µM"}
    ]},
    {"smiles": "C[C@]12CC[C@H](O)CC1=CC[C@@H]1[C@@H]2CC[C@]2(C)C(=O)CC[C@@H]12", "note": "[DHEA, dehydroepiandrosterone]", "values": [
      {"measurement": "IC50", "setting": "[1]", "value": "41 ± 4", "unit": "µM"},
      {"measurement": "decrease of Slo3 current amplitude", "setting": "[1]; 50 μM steroid, +100 mV, n ≥ 3", "value": "significantly decreased"}
    ]},
    {"smiles": "CCCCC[C@H](O)/C=C/[C@H]1[C@H](O)CC(=O)[C@@H]1CCCCCCC(=O)O", "note": "[PGE1, prostagladin E1]", "values": [
      {"measurement": "decrease of Slo3 current amplitude", "setting": "[1]; [4]", "value": "18 ± 7", "unit": "%"}
    ]},
    {"smiles": "CCCCC[C@H](O)/C=C/[C@H]1[C@H](O)CC(=O)[C@@H]1C/C=C\\CCCC(=O)O", "note": "[PGE2, prostaglandin E2]", "values": [
      {"measurement": "decrease of Slo3 current amplitude", "setting": "[1]; [4]", "value": "7 ± 7", "unit": "%"}
    ]},
    {"smiles": "[Zn+2]", "note": "[Zn^2+]", "values": [
      {"measurement": "decrease of Slo3 current amplitude", "setting": "[1]; 1 mM Zn^2+, n = 4, in range of current rundown", "value": "14 ± 13", "unit": "%"}
    ]},
    {"smiles": "C[C@]12CC[C@H]3[C@@H](CC=C4C[C@@H](O)CC[C@@]43C)[C@@H]1CC[C@@H]2O", "note": "[androstenediol]", "values": [
      {"measurement": "decrease of Slo3 current amplitude", "setting": "[1]; 50 μM steroid, +100 mV, n ≥ 3", "value": "≤ 18", "unit": "%"}
    ]},
    {"smiles": "C[C@]12CCC(=O)C=C1CC[C@@H]1[C@@H]2CC[C@]2(C)C(=O)CC[C@@H]12", "note": "[androstenedione]", "values": [
      {"measurement": "decrease of Slo3 current amplitude", "setting": "[1]; 50 μM steroid, +100 mV, n ≥ 3", "value": "≤ 18", "unit": "%"}
    ]},
    {"smiles": "CCCCC/C=C\\C/C=C\\C/C=C\\C/C=C\\CCCC(=O)O", "note": "[arachidonic acid]", "values": [
      {"measurement": "effect on Slo3 currents", "setting": "[1]; 3 µM arachidonic acid, n = 7", "value": "did not affect"}
    ]},
    {"smiles": "C[C@]12C[C@H](O)[C@H]3[C@@H](CCC4=CC(=O)CC[C@@]43C)[C@@H]1CC[C@@H]2C(=O)CO", "note": "[corticosterone]", "values": [
      {"measurement": "decrease of Slo3 current amplitude", "setting": "[1]; 50 μM steroid, +100 mV, n ≥ 3", "value": "significantly decreased"},
      {"measurement": "IC50", "setting": "[1]; [3]", "value": "58 ± 11", "unit": "µM"}
    ]},
    {"smiles": "C[C@]12CCC(=O)C=C1CC[C@@H]1[C@@H]2C(=O)C[C@@]2(C)[C@H]1CC[C@]2(O)C(=O)CO", "note": "[cortisone]", "values": [
      {"measurement": "decrease of Slo3 current amplitude", "setting": "[1]; 50 μM steroid, +100 mV, n ≥ 3", "value": "≤ 18", "unit": "%"}
    ]},
    {"smiles": "C[C@]12CC[C@@H]3c4ccc(O)cc4CC[C@H]3[C@@H]1CC[C@@H]2O", "note": "[estradiol]", "values": [
      {"measurement": "IC50", "setting": "[1]", "value": "8.9 ± 4.4", "unit": "µM"},
      {"measurement": "decrease of Slo3 current amplitude", "setting": "[1]; 50 μM steroid, +100 mV, n ≥ 3", "value": "significantly decreased"},
      {"measurement": "fold less potent than progesterone to activate CatSper", "setting": "[2]", "value": "around 100 fold"}
    ]},
    {"smiles": "C[C@]12CC[C@@H]3c4ccc(O)cc4CC[C@H]3[C@@H]1CCC2=O", "note": "[estrone]", "values": [
      {"measurement": "decrease of Slo3 current amplitude", "setting": "[1]; 50 μM steroid, +100 mV, n ≥ 3", "value": "≤ 18", "unit": "%"}
    ]},
    {"smiles": "CC(=O)[C@H]1CC[C@H]2[C@@H]3CC=C4C[C@@H](O)CC[C@]4(C)[C@H]3CC[C@]12C", "note": "[pregnenolone]", "values": [
      {"measurement": "decrease of Slo3 current amplitude", "setting": "[1]; 50 μM steroid, +100 mV, n ≥ 3", "value": "≤ 18", "unit": "%"}
    ]},
    {"smiles": "CC(=O)[C@H]1CC[C@H]2[C@@H]3CCC4=CC(=O)CC[C@]4(C)[C@H]3CC[C@]12C", "note": "[progesterone]", "values": [
      {"measurement": "decrease of Slo3 current amplitude", "setting": "[1]; 50 μM steroid, +100 mV, n ≥ 3", "value": "significantly decreased"},
      {"measurement": "IC50", "setting": "[1]; [3]", "value": "5.2 ± 2.9", "unit": "µM"}
    ]},
    {"smiles": "C[C@]12CC[C@H]3[C@@H](CCC4=CC(=O)CC[C@@]43C)[C@@H]1CC[C@@H]2O", "note": "[testosterone]", "values": [
      {"measurement": "IC50", "setting": "[1]", "value": "17 ± 14", "unit": "µM"},
      {"measurement": "decrease of Slo3 current amplitude", "setting": "[1]; 50 μM steroid, +100 mV, n ≥ 3", "value": "significantly decreased"}
    ]}
  ]
}
